Source: patent publication US8663669B2, “Pesticide treatment of soils or substrates with sulphur compounds” (Arkema France, priority 2002, dated 2014)

Tests used:
[1] = test system: termite (Reticulitermes santonensis); experiment: Insecticidal in vitro fumigation test on termites; format: in vivo; conditions: 24 hours of fumigation, mortality counted at the end of 48 hours; 25° C.
Protocol: Dead wood infested with termites was collected from the soil on ground occupied by a colony. This dead wood serves as breeding medium. The breeding is maintained at a constant 25° C. and a day/night 12:12 alternation.
The insects are removed in an amount of 2 soldiers per 28 workers.
The tests are carried out in hermetically closed glass jars having a volume of 3 L and containing the insects.
The product to be tested is introduced through a hole 2 mm in diameter with the aid of a micropipette and deposited on a filter paper (2×5 cm: Whatman No. 1) suspended at the centre of the jar where it migrates by capillarity and vaporizes rapidly. The hole is hermetically closed again as quickly as possible.
The jars are placed for 24 hours in an incubator under the same breeding conditions.
At the end of 24 hours, after a few instants of aeration, a first count is made and then the insects are placed again under breeding conditions for another 24 hours. The counting of the mortality is therefore carried out at the end of 48 hours. […] Each test is carried out on a population of 30 to 50 insects and is accompanied by a control without treatment. Several repeats are carried out with doses close to the LC50.

[2] = test system: young cucumber plants (9 cm, 2 leaves, ARIS hybrid); experiment: Phytotoxicity on young cucumber plants; format: in vivo
Protocol: (§1) For both types of crop, 4 treatments were performed on 20 plants: • untreated control • 360 kg/ha of DMDS • 540 kg/ha of DMDS • 720 kg/ha of DMDS
(§2) Five days after the treatment, the young plants are transplanted into pots 20 cm in diameter and 35 cm in height.
(§3) The observations relating to the number of leaves per plant and the visual state of the plants are carried out 15 and 41 days after the transplantation: […]

[3] = test system: soil microorganisms; experiment: Effect on soil microorganisms (oxygen consumed); conditions: 150 kg/ha (formulation A)
Protocol: The effect of DMDS, applied at 150 kg/ha in the form of formulation A, to soil microorganisms was evaluated according to the following standard methods: • “Recommended tests for assessing the side-effects of pesticides on the soil micro flora”, Technical Report Agricultural Research Council Weed Research Organization, 1980 (59). • “OECD Guideline for Testing of Chemicals—Soil Microorganisms: Carbon Mineralization Test”, Draft document, June 1996.
The effect of DMDS on soil microorganisms is measured by the reduction in the oxygen consumed by these microorganisms, expressed in mg O2 per kg of dry soil per h, 14, 28, 42, 57 days after the treatment (Table 14).

[4] = Diffusion of DMDS into the soil (column of earth, gas chromatography); format: physicochemical
Protocol: The rate of diffusion of DMDS was studied by filling a sealed thermal glass chamber of 3.3 litres and 40 cm in height with 2.5 litres of earth (that is 33 cm) obtained from the Garonne valley (sandy-muddy soil containing 1.6% of organic matter); the DMDS was deposited at the surface of the earth in 2 doses: 300 and 800 kg/ha, that is, considering a disinfection over 30 cm, doses of 100 and 266.6 g/m^3 of soil. There are then measured by gas chromatography, as a function of time (in hours), the concentrations of DMDS in gaseous form (in g/m^3) in the top free volume of the chamber (point A) and at 11 cm (point B), 22 cm (point C) and 33 cm (point D) below the level of the earth by means of 3 openings equipped with sealed septums on the side of the chamber; the variation in the concentration as a function of time for the 4 measurement points is thus obtained, as shown in Table 2 in the case of the 800 kg/ha dose.
The product CT of the concentrations C by the time of measurement T is another essential data which indicates the cumulative doses of DMDS to which are subjected the pathogenic organisms which may be present at the different measurement points. The CT values in gh/m^3 indicated in Table 3 are thus found for the two concentrations tested.

[5] = test system: young tomato plants (13 cm, 3 leaves, JUMBO hybrid); experiment: Phytotoxicity on young tomato plants; format: in vivo
Protocol: as §1, §2, §3

[6] = 360, 540, 720 kg/ha, 15 and 41 days after transplantation
[7] = 360 kg/ha DMDS (formulation A), after 15 days
[8] = 360 kg/ha DMDS (formulation A), after 41 days
[9] = 540 kg/ha DMDS (formulation A), after 15 days
[10] = 540 kg/ha DMDS (formulation A), after 41 days
[11] = 720 kg/ha DMDS (formulation A), after 15 days
[12] = 720 kg/ha DMDS (formulation A), after 41 days
[13] = regardless of the concentration tested (360-720 kg/ha)

## CSSC [DMDS, dimethyl disulphide]
[1]
  LC50 (Probits method): 0.095 g × 24 h/m^3
[2]; [6]
  Visual symptom of phytotoxicity: no visual symptom of phytotoxicity
[2]; [7]
  Average number of leaves per plant: 5.3
[2]; [8]
  Average number of leaves per plant: 9.8
[2]; [9]
  Average number of leaves per plant: 5.7
[2]; [10]
  Average number of leaves per plant: 9.7
[2]; [11]
  Average number of leaves per plant: 5.7
[2]; [12]
  Average number of leaves per plant: 9.9
[2]; [13]
  Difference in number of leaves between untreated control and treated plants: no significant difference
[3]; Day 0, untreated control 11.23
  Oxygen consumed by soil microorganisms: 9.70 mg O2 per kg of dry soil per h
[3]; Day 14, untreated control 10.18
  Oxygen consumed by soil microorganisms: 8.74 mg O2 per kg of dry soil per h
[3]; Day 28, untreated control 7.87
  Oxygen consumed by soil microorganisms: 6.62 mg O2 per kg of dry soil per h
[3]; Day 42, untreated control 9.12
  Oxygen consumed by soil microorganisms: 8.93 mg O2 per kg of dry soil per h
[3]; Day 57, untreated control 7.30
  Oxygen consumed by soil microorganisms: 4.90 mg O2 per kg of dry soil per h
[4]; 300 kg/ha, A (0 cm)
  CT (product of concentrations C by time T): 3187 gh/m^3
[4]; 300 kg/ha, B (−11 cm)
  CT (product of concentrations C by time T): 2737 gh/m^3
[4]; 300 kg/ha, C (−22 cm)
  CT (product of concentrations C by time T): 2753 gh/m^3
[4]; 300 kg/ha, D (−33 cm)
  CT (product of concentrations C by time T): 2210 gh/m^3
[4]; 800 kg/ha dose, 0 h, A (0 cm)
  DMDS concentration in gaseous form: 0 g/m^3
[4]; 800 kg/ha dose, 0 h, B (−11 cm)
  DMDS concentration in gaseous form: 0 g/m^3
[4]; 800 kg/ha dose, 0 h, C (−22 cm)
  DMDS concentration in gaseous form: 0 g/m^3
[4]; 800 kg/ha dose, 0 h, D (−33 cm)
  DMDS concentration in gaseous form: 0 g/m^3
[4]; 800 kg/ha dose, 33 cm of earth
  Time for the DMDS concentration to be homogeneous in the entire thickness of the column of earth: approximately 24 hours
[4]; 800 kg/ha dose, 1 h, A (0 cm)
  DMDS concentration in gaseous form: 144.9 g/m^3
[4]; 800 kg/ha dose, 1 h, B (−11 cm)
  DMDS concentration in gaseous form: 76.6 g/m^3
[4]; 800 kg/ha dose, 1 h, C (−22 cm)
  DMDS concentration in gaseous form: 3 g/m^3
[4]; 800 kg/ha dose, 1 h, D (−33 cm)
  DMDS concentration in gaseous form: 0 g/m^3
[4]; 800 kg/ha dose, 3 h, A (0 cm)
  DMDS concentration in gaseous form: 152.7 g/m^3
[4]; 800 kg/ha dose, 3 h, B (−11 cm)
  DMDS concentration in gaseous form: 73.9 g/m^3
[4]; 800 kg/ha dose, 3 h, C (−22 cm)
  DMDS concentration in gaseous form: 5.1 g/m^3
[4]; 800 kg/ha dose, 3 h, D (−33 cm)
  DMDS concentration in gaseous form: 0.3 g/m^3
[4]; 800 kg/ha dose, 5 h, A (0 cm)
  DMDS concentration in gaseous form: 96.3 g/m^3
[4]; 800 kg/ha dose, 5 h, B (−11 cm)
  DMDS concentration in gaseous form: 63.8 g/m^3
[4]; 800 kg/ha dose, 5 h, C (−22 cm)
  DMDS concentration in gaseous form: 48.4 g/m^3
[4]; 800 kg/ha dose, 5 h, D (−33 cm)
  DMDS concentration in gaseous form: 21.5 g/m^3
[4]; 800 kg/ha dose, 5.5 h, A (0 cm)
  DMDS concentration in gaseous form: 123.7 g/m^3
[4]; 800 kg/ha dose, 5.5 h, B (−11 cm)
  DMDS concentration in gaseous form: 91.4 g/m^3
[4]; 800 kg/ha dose, 5.5 h, C (−22 cm)
  DMDS concentration in gaseous form: 58.3 g/m^3
[4]; 800 kg/ha dose, 5.5 h, D (−33 cm)
  DMDS concentration in gaseous form: 29.4 g/m^3
[4]; 800 kg/ha dose, 24 h, A (0 cm)
  DMDS concentration in gaseous form: 32.7 g/m^3
[4]; 800 kg/ha dose, 24 h, B (−11 cm)
  DMDS concentration in gaseous form: 30.2 g/m^3
[4]; 800 kg/ha dose, 24 h, C (−22 cm)
  DMDS concentration in gaseous form: 40.1 g/m^3
[4]; 800 kg/ha dose, 24 h, D (−33 cm)
  DMDS concentration in gaseous form: 34.4 g/m^3
[4]; 800 kg/ha dose, 96 h, A (0 cm)
  DMDS concentration in gaseous form: 11.8 g/m^3
[4]; 800 kg/ha dose, 96 h, B (−11 cm)
  DMDS concentration in gaseous form: 11.5 g/m^3
[4]; 800 kg/ha dose, 96 h, C (−22 cm)
  DMDS concentration in gaseous form: 12.9 g/m^3
[4]; 800 kg/ha dose, 96 h, D (−33 cm)
  DMDS concentration in gaseous form: 14.6 g/m^3
[4]; 800 kg/ha, A (0 cm)
  CT (product of concentrations C by time T): 4145 gh/m^3
[4]; 800 kg/ha, B (−11 cm)
  CT (product of concentrations C by time T): 3327 gh/m^3
[4]; 800 kg/ha, C (−22 cm)
  CT (product of concentrations C by time T): 3276 gh/m^3
[4]; 800 kg/ha, D (−33 cm)
  CT (product of concentrations C by time T): 2809 gh/m^3
[4]; dose of 300 kg/ha
  CT values, order of magnitude: ~2 500 gh/m^3
[4]; dose of 800 kg/ha
  CT values, order of magnitude: ~3 000 gh/m^3
[5]; [6]
  Visual symptom of phytotoxicity: no visual symptom of phytotoxicity
[5]; [7]
  Average number of leaves per plant: 5.3
[5]; [8]
  Average number of leaves per plant: 9.6
[5]; [9]
  Average number of leaves per plant: 5.3
[5]; [10]
  Average number of leaves per plant: 9.4
[5]; [11]
  Average number of leaves per plant: 5.7
[5]; [12]
  Average number of leaves per plant: 9.8
[5]; [13]
  Difference in number of leaves between untreated control and treated plants: no significant difference
